Results from US11957712B2, “Application of a hydrogel in the preparation of products for the treatment of bacterial infections” (Shaanxi University of Science & Technology, priority 2022, dated 2024).

Tests used:
Enterobacter sakazakii = conditions: 16 μM ferrous sulfate, 12 h, FIG. 8B
Method: (§1) Ferrous sulfate aqueous solutions were configured to a final concentration of 16 μM; and prepare 10^8 CFU/mL of Escherichia coli, Listeria monocytogenes, Vibrio Parahemolyticus, Enterobacter sakazakii, Staphylococcus aureus and MRSA. A 96-well plate assay was performed to determine the susceptibility of six pathogenic bacteria to ferrous sulfate, and after 12 h treatment, the total number of bacterial colonies was determined in a drop-plate assay to further investigate the effect of ferrous ions on their inhibition.

Escherichia coli = conditions: 16 μM ferrous sulfate, 12 h, FIG. 8B
Method: as §1

Listeria monocytogenes = conditions: 16 μM ferrous sulfate, 12 h, FIG. 8B
Method: as §1

MRSA = conditions: 16 μM ferrous sulfate, 12 h, 10^8 CFU/mL
Method: as §1

Staphylococcus aureus [1] = conditions: 16 μM ferrous sulfate, 12 h, 10^8 CFU/mL
Method: as §1

Vibrio Parahemolyticus = conditions: 16 μM ferrous sulfate, 12 h, FIG. 8B
Method: as §1

S. aureus = test system: S. aureus
Method: Ferrous sulfate aqueous solutions were configured to final concentrations of 1, 4, 16, and 64 μM, respectively, and ampicillin and vancomycin as positive controls were configured to 100 μg/mL, as well as ultrapure water without ferrous sulfate was set as a blank control group. Then 10^8 CFU/mL of S. aureus and MRSA were prepared. The cell suspensions were added with FeSO4 at final concentrations of 0, 1, 4, 16, 64 μM, respectively, and incubated at 37° C. 200 rpm for 12 h. […] After incubation, S. aureus cells were collected by centrifugation, suspended in 1 mL of normal saline solution, and subjected to 10-fold serial dilutions. Finally, 6 dilutions of each condition were plated on TSB agar, and the colony form units (CFU) were enumerated after incubation at 37° C. overnight.

Staphylococcus aureus [2] = conditions: 100 μM, 12 h treatment, approximately 10^8 CFU/mL
Method: To verify the antibacterial activity of ferrous ions against Staphylococcus aureus, the following tests were done: • 1. […] 96-well plate method was used to test the drug sensitivity of 9 ferrous salts against Staphylococcus aureus (approximately 10^8 CFU/mL). After 12 h treatment, the total number of bacterial colonies was determined followed by drop plate method to further investigate the antibacterial effect of iron ions on Staphylococcus aureus.

In the case of ferrous sulfate, the bactericidal effect (Enterobacter sakazakii) is reported as “strong bactericidal effect”, the bactericidal effect (Escherichia coli) is reported as “strong bactericidal effect” and the bactericidal effect (Listeria monocytogenes) is reported as “strong bactericidal effect”. For the same substance, the “survival of MRSA” value (MRSA) was “less than 0.01%”, the “survival rate of S. aureus” value (Staphylococcus aureus [1]) was “less than 0.001%” and the bactericidal effect (Vibrio Parahemolyticus) was “strong bactericidal effect”. The “MBC (lowest concentration required to kill 99.99% cells of S. aureus)” value (S. aureus; 37° C., 200 rpm, 12 h, 10^8 CFU/mL) was 16 µM, the bactericidal rate (S. aureus; at 16 μM (MBC)) was 99.99% and the “inhibition of the growth of S. aureus” value (Staphylococcus aureus [2]) was ~100%.
